Experimental data reported in patent US6906086B2, “Methods for inhibiting bone loss” (Eli Lilly and Company, priority 1992, dated 2005).
Entries after “also recorded” stand apart in the source; their conditions may differ. Where a name gives a salt, the structure may show the parent alone. Read-outs that look alike come from different tables or passages of the source.

How the values were obtained:
[1] = system: ovariectomized (ovex) rats; experiment: Ovariectomized rat model of post-menopausal osteoporosis: femur density by single photon absorptiometry; assay type: in vivo, Sprague Dawley rats; conditions: for inhibition in vivo at 1 mg/kg: Rattus norvegicus, read-out: % Inhibition of Bone Loss; for prevention of bone loss (femur density), in words: oral
Experimental: In the examples illustrating the methods, a model of post-menopausal osteoporosis was used in which effects of different treatments upon femur density were determined.
Seventy-five day old female Sprague Dawley rats (weight range of 225 to 275 g) were obtained from Charles River Laboratories (Portage, Mich.). They were housed in groups of 3 and had ad libitum access to food (calcium content approximately 1%) and water. Room temperature was maintained at 22.2°±1.7° C. with a minimum relative humidity of 40%. The photoperiod in the room was 12 hours light and 12 hours dark.
The right femurs were excised and scanned at the distal metaphysis 1 mm from the patellar groove with single photon absorptiometry. Results of the densitometer measurements represent a calculation of bone density as a function of the bone mineral content and bone width.

[2] = system: ovariectomized (ovex) rats; conditions: rat, in vivo, po
Experimental: (§1) One week after arrival, the rats underwent bilateral ovariectomy under anesthesia (44 mg/kg Ketamine and 5 mg/kg Xylazine (Butler, Indianapolis, Ind.) administered intramuscularly). Treatment with vehicle, estrogen, or a compound of formula I was initiated on the day of surgery following recovery from anesthesia. Oral dosage was by gavage in 0.5 mL of 1% carboxymethylcellulose (CMC). Body weight was determined at the time of surgery and weekly thereafter and the dosage was adjusted with changes in body weight. Vehicle or estrogen treated ovariectomized (ovex) rats and non-ovariectomized (intact) rats were evaluated in parallel with each experimental group to serve as negative and positive controls.
(§2) The rats were treated daily for 35 days (6 rats per treatment group) and sacrificed by decapitation on the 36th day. […] At the time of sacrifice, the uteri were removed, dissected free of extraneous tissue, and the fluid contents were expelled before determination of wet weight in order to confirm estrogen deficiency associated with complete ovariectomy. […] The uteri were then placed in 10% neutral buffered formalin to allow for subsequent histological analysis.

[3] = system: ovariectomized (ovex) rats; experiment: Uterine wet weight in ovariectomized rats; conditions: for % Uterine Weight Gain: relative to estrogen treated ovex animals
Experimental: as §1, §2

ovariectomized rats = experiment: Uterine histological parameters of estrogenicity in ovariectomized rats; conditions: for Epithelial Height / Myometrial Thickness / Stromal Eosinophils / Stromal Expansion: Table 6, ovex rats, 1 mg/kg
Experimental: A relatively narrow range of doses of raloxifene and tamoxifen was administered orally to ovariectomized rats as in the previous example.
Increases in epithelial height are a sign of estrogenicity of therapeutic agents and may be associated with increased incidence of uterine cancer.
Estrogenicity was also assessed by evaluating the adverse response of eosinophil infiltration into the stromal layer of the uterus (Table 6).

[4] = Love et al. 1992; Turner et al. 1988; cited from earlier work
[5] = Oral administration to human subjects in the clinic: parent compound in serum
[6] = system: uterine uptake of tritiated-estradiol; experiment: Laboratory animal studies: uterine uptake of tritiated-estradiol and uterotrophic response to estradiol; conditions: laboratory animals; conditions where raloxifene was extensively conjugated in plasma
Description: Experiments were undertaken to address the bioavailability issue in laboratory animals where biological activity could be assessed.

[7] = ovex rats, 1 mg/kg oral, relative to estrogen treated ovex animals
[8] = Table 5, ovex rats, 1 mg/kg oral

## O=C(Oc1ccc(-c2sc3cc(OC(=O)c4ccccc4)ccc3c2C(=O)c2ccc(OCCN3CCCCC3)cc2)cc1)c1ccccc1 [Compound 12]
[1]; [7]
  % Inhibition of Bone Loss: 60%
[2]; 1 mg/kg
  % Uterine Weight Gain: 15%

## O=C(Oc1ccc(-c2sc3cc(OC(=O)c4ccc(F)cc4)ccc3c2C(=O)c2ccc(OCCN3CCCCC3)cc2)cc1)c1ccc(F)cc1 [Compound 2, 6-(4-Fluorobenzoyloxy)-2-[4-(4-fluorobenzoyloxy)-phenyl]-benzo[b]thien-3-yl-[4-[2-(piperidin-1-yl)ethoxy)-phenyl]-methanone Hydrochloride]
[1]; [7]
  inhibition in vivo at 1 mg/kg: 86%
[3]; ovex rats, 1 mg/kg oral
  % Uterine Weight Gain: 26%

## Cc1ccc(C(=O)Oc2ccc(-c3sc4cc(OC(=O)c5ccc(C)cc5)ccc4c3C(=O)c3ccc(OCCN4CCCCC4)cc3)cc2)cc1 [Compound 11, 6-(4-Methylbenzoyloxy)-2-[4-(4-methylbenzoyloxy)-phenyl]benzo[b]thien-3-yl[4-[2-(piperidin-1-yl)ethoxy]-phenyl]methanone Hydrochloride]
[1]; [7]
  inhibition in vivo at 1 mg/kg: 26%
[3]; ovex rats, 1 mg/kg oral
  % Uterine Weight Gain: 28%

## COCC(=O)Oc1ccc(-c2sc3cc(OC(=O)COC)ccc3c2C(=O)c2ccc(OCCN3CCCCC3)cc2)cc1 [Compound 18, 6-(Methoxyethanoyloxy)-2-[4(methoxyethanoyloxy)phenyl]-benzo[b]thien-3-yl [4-[2-(piperidin-1-yl)ethoxy]phenyl]-methanone]
[1]; [7]
  inhibition in vivo at 1 mg/kg: 21%
[3]; ovex rats, 1 mg/kg oral
  % Uterine Weight Gain: 17%

## CCCCOC(=O)Oc1ccc(-c2sc3cc(OC(=O)OCCCC)ccc3c2C(=O)c2ccc(OCCN3CCCCC3)cc2)cc1.Cl [Compound 14, 6-(n-Butoxycarbonyloxy)-2-[4(n-butoxycarbonyloxy)phenyl]-benzo[b]thien-3-yl[4-[2-(piperidin-1-yl)ethoxy]phenyl]-methanone Hydrochloride]
[1]; [7]
  inhibition in vivo at 1 mg/kg: 121%
[3]; ovex rats, 1 mg/kg oral
  % Uterine Weight Gain: 32%

## CC(C)(C)CC(=O)Oc1ccc(-c2sc3cc(OC(=O)CC(C)(C)C)ccc3c2C(=O)c2ccc(OCCN3CCCCC3)cc2)cc1 [Compound 10, 6-(3,3-Dimethylbutanoyloxy)-2-[4-(3,3-dimethylbutanoyloxy)-phenyl]benzo[b]thien-3-yl-[4-[2-(piperidin-1-yl)ethoxy]-phenyl]methanone Hydrochloride]
[1]; [7]
  inhibition in vivo at 1 mg/kg: 52%
[3]; ovex rats, 1 mg/kg oral
  % Uterine Weight Gain: 24%

## CC(C)(C)C(=O)Oc1ccc(-c2sc3cc(OC(=O)C(C)(C)C)ccc3c2C(=O)c2ccc(OCCN3CCCCC3)cc2)cc1.Cl [Compound 8, 6-(2,2-Dimethylpropanoyloxy)-2-[4-(2,2-dimethyl-propanoyloxy)phenyl]benzo[b]thien-3-yl-[4-[2-(piperidin-1-yl)ethoxy]phenyl]methanone Hydrochloride]
[1]; [7]
  inhibition in vivo at 1 mg/kg: 66%
[3]; ovex rats, 1 mg/kg oral
  % Uterine Weight Gain: 24%

## CC/C(=C(\c1ccccc1)c1ccc(OCCN(C)C)cc1)c1ccccc1 [tamoxifen]
[1]; [8]
  Bone Density: 204 ± 7 mg/cm/cm
[1]; ovariectomized rats
  prevention of bone loss (femur density), in words: displayed the ability to prevent reduction of femur density
Ovariectomized rats
  Epithelial Height: 2.58
  Myometrial Thickness: 5.50
  Stromal Eosinophils: 2.83
  Stromal Expansion: 14.17
Ovariectomized rats; ovariectomized rats
  eosinophil infiltration into the stromal layer of the uterus, in words: caused a significant increase
  thickness of the stroma and myometrium, in words: an increase in these measurements that was much less than the effect of estrogen
Ovariectomized rats; ovariectomized rats, oral
  epithelial height, in words: increased epithelial height equal to that of an intact rat
Ovariectomized rats; ovariectomized rats, all doses given
  increase in epithelial height over the response seen with raloxifene: six-fold
[4]
  inhibition of bone loss: has been shown to inhibit bone loss
[3]; [8]
  Uterine Weight: 216 ± 18 mg
[3]; ovariectomized rats, oral
  uterine weight, in words: only modest uterotrophic activity

## O=C(Oc1ccccc1)Oc1ccc(-c2sc3cc(OC(=O)Oc4ccccc4)ccc3c2C(=O)c2ccc(OCCN3CCCCC3)cc2)cc1 [Compound 16, 6-(Phenyloxycarbonyloxy)-2-[4(phenyloxycarbonyloxy)phenyl]-benzo[b]thien-3-yl[4-[2-(piperidin-1-yl)ethoxy]phenyl]-methanone hydrochloride]
[1]; [7]
  inhibition in vivo at 1 mg/kg: 108%
[3]; ovex rats, 1 mg/kg oral
  % Uterine Weight Gain: 25%

## CCCC(=O)Oc1ccc(-c2sc3cc(OC(=O)CCC)ccc3c2C(=O)c2ccc(OCCN3CCCCC3)cc2)cc1 [Compound 6, 6-(n-Butanoyloxy)-2-[4-(n-butanoyloxy)phenyl]benzo[b]thien-3-yl-[4-[2-(piperidin-1-yl)ethoxy]phenyl]methanone Hydrochloride]
[1]; [7]
  inhibition in vivo at 1 mg/kg: 24%
[3]; ovex rats, 1 mg/kg oral
  % Uterine Weight Gain: 19%

## Cl.O=C(c1ccc(OCCN2CCCCC2)cc1)c1c(-c2ccc(O)cc2)sc2cc(O)ccc12 [raloxifene, 6-hydroxy-2-(4-hydroxyphenyl)-benzo[b]thien-3-yl-4-[2-(piperidin-1-yl)ethoxyphenyl]-methanone hydrochloride]
[1]; Table 4 Experiment B, ovex rats, raloxifene 1 mg/kg alone
  Bone Density: 198 ± 11 mg/cm/cm
[1]; [8]
  Bone Density: 207 ± 13 mg/cm/cm
[1]; ovariectomized rats, hydrochloride
  prevention of bone loss (femur density), in words: prevented bone loss in a dose dependent manner; also recorded: significantly reduced bone loss; also recorded: displayed the ability to prevent reduction of femur density
[1]; ovariectomized rats, given in combination with ethynyl estradiol
  effect on the protective effect of estrogen on bone density: did not appreciably reduce the protective effect of the estrogen on bone density
[1]; ovex rats, 0.01 mg/kg oral, 35 days, five assays combined, thirty rats, mean ± SEM (Table 3)
  Bone Density: 176 ± 3 mg/cm/cm
[1]; ovex rats, 0.10 mg/kg oral, 35 days, five assays combined, thirty rats, mean ± SEM (Table 3)
  Bone Density: 197 ± 3 mg/cm/cm
[1]; ovex rats, 1.00 mg/kg oral, 35 days, five assays combined, thirty rats, mean ± SEM (Table 3)
  Bone Density: 201 ± 3 mg/cm/cm
[1]; ovex rats, 10.00 mg/kg oral, 35 days, five assays combined, thirty rats, mean ± SEM (Table 3)
  Bone Density: 199 ± 3 mg/cm/cm
Ovariectomized rats
  Epithelial Height: 1.67
  Myometrial Thickness: 5.42
  Stromal Eosinophils: 1.17
  Stromal Expansion: 14.00
Ovariectomized rats; ovariectomized rats
  eosinophil infiltration into the stromal layer of the uterus, in words: did not cause any increase
  thickness of the stroma and myometrium, in words: an increase in these measurements that was much less than the effect of estrogen
  total score of estrogenicity (compilation of all four parameters): significantly less estrogenic than tamoxifen
Ovariectomized rats; ovariectomized rats, oral
  epithelial height, in words: only at one dose was there any statistically measurable increase in epithelial height over the ovariectomized controls
[2]; 1 mg/kg
  Uterine Weight: 198 ± 9 mg
[5]
  clearance from the bloodstream: cleared quickly from the bloodstream
  conjugation following oral administration: extensively conjugated to the glucuronidated form
  parent compound in the serum: not detected
[6]
  inhibition of the normal uterotrophic response to estradiol: maximally active
  inhibition of uterine uptake of tritiated-estradiol: maximally active

## C#C[C@]1(O)CC[C@H]2[C@@H]3CCc4cc(O)ccc4[C@H]3CC[C@@]21C [EE2, ethynyl estradiol, reference compound]
[1]; Table 4 Experiment A, ovex rats, EE2 100 μg/kg oral
  Bone Density: 202 ± 6 mg/cm/cm
[1]; Table 4 Experiment B, ovex rats, EE2 100 μg/kg oral
  Bone Density: 215 ± 11 mg/cm/cm
[1]; Table 5, ovex rats, 100 μg/kg oral
  Bone Density: 212 ± 10 mg/cm/cm
[1]; ovariectomized rats
  prevention of bone loss (femur density), in words: prevented this loss of bone in a dose dependent manner
[1]; ovex rats, 100 μg/kg oral daily 35 days, five experiments accumulated, mean of thirty rats ± SEM (Table 2)
  Bone Density: 210 ± 4 mg/cm/cm
Ovariectomized rats; rat, in vivo
  eosinophil infiltration into the stromal layer of the uterus, in words: caused a large increase in eosinophil infiltration
Ovariectomized rats; rat, in vivo, po
  epithelial height, in words: increased epithelial height to a thickness greater than intact rats
[2]
  uterine weight, in words: approached those of the intact controls
